System: P388
Experiment: Cytotoxicity against mouse P388 cells
Assay type: functional, cell-based

SMILES	IC50 [µM]
Cn1cnc(S[C@H]2[C@H]3C(=O)C=C4S[C@H]5C[C@]42C2=C(N5)C(=O)c4[nH]cc5c4C2=[N+]3CC5)c1C[C@H](N)C(=O)O [DISCORHABDIN H]	> 8.2
Cn1cnc(S[C@@H]2[C@@H]3C(=O)C=C4S[C@@H]5C[C@@]42C2=C(N5)C(=O)c4[nH]cc5c4C2=[N+]3CC5)c1C[C@H](N)C(=O)O [DISCORHABDIN H2]	> 8.2
Cn1cnc(SC2=CC(=O)C=C3S[C@@H]4C[C@]23C2=C(N4)C(=O)c3[nH]cc4c3C2=NCC4)c1C[C@H](N)C(=O)O [DISCORHABDIN K2]	> 8.2
Cn1cnc(SC2=CC(=O)C=C3S[C@H]4C[C@@]23C2=C(N4)C(=O)c3[nH]cc4c3C2=NCC4)c1C[C@H](N)C(=O)O [DISCORHABDIN K]	> 8.2

From ChEMBL document CHEMBL1268861, “Isolation and characterization of diastereomers of discorhabdins H and K and assignment of absolute configuration to discorhabdins D, N, Q, S, T, and U” (J Nat Prod, 2010)
